Earlier results as cited in patent publication US20100022600A1, “METHODS AND COMPOSITIONS FOR TREATING CENTRAL NERVOUS SYSTEM TUMORS” (priority 2006, published 2010).

Legend:
[1] = test system: C6 cells; conditions: J Neurochem 2002; 81: 1052-60; cited from earlier work
[2] = test system: BT4Cn rat glioma cells; conditions: Carcinogenesis 2001; 22: 1747-55; cited from earlier work
[3] = test system: acyl-CoA synthetase; conditions: PPARγ-independent; J Biol Chem 2001; 276: 33736-40; cited from earlier work
[4] = test system: cholesterol biosynthesis; conditions: PPARγ-independent; Diabetes 1999; 48: 254-60; cited from earlier work

CC1(COc2ccc(CC3SC(=O)NC3=O)cc2)CCCCC1 (stereo not shown) [ciglitazone, 5-[4-[(1-methylcyclohexyl)methoxy]benzyl]thiazolidine-2,4-dione]
redifferentiation of C6 cells [1]: increased redifferentiation

O=C(Nc1ccccc1)c1cc([N+](=O)[O-])ccc1Cl [GW9662]
effect on growth inhibition by PPARγ agonists [2]: abolished

Cc1c(C)c2c(c(C)c1O)CCC(C)(COc1ccc(CC3SC(=O)NC3=O)cc1)O2 (single isomer, unassigned; (+)) [troglitazone, (+)-5 [[4-[(3,4-dihydro-6-hydroxy-2,5,7,8-tetramethyl-2H-1-benzopyran-2-yl)methoxy]phenyl]methyl]-2,4thiazolidinedione]
acyl-CoA synthetase [3]: inhibit
cholesterol biosynthesis [4]: inhibit
